Source: patent publication US8192962B2, “Processes for detecting toxic substances” (Daikin Industries, Ltd., priority 2001, dated 2012)

Tested on: Genes belonging to other category
Assay: DNA chip mRNA expression in yeast, genes belonging to other category (Table 9)
Format: cell-based, Saccharomyces cerevisiae S288C
Summary of the method: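 S. cerevisiae S288C grown at 25° C in YPD were exposed in log phase for two hours to one toxic chemical at a growth-inhibiting, non-lethal concentration; untreated cells served as control. Poly(A) mRNA was reverse-transcribed with Cy3/Cy5-dUTP and hybridized to a whole-genome yeast DNA chip at 65° C for over 12 hours; values are fluorescence ratios versus untreated.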

Measured: The level of expressed mRNA in the presence of chemical substance/The level of expressed mRNA in the absence of chemical substance

C=CC=O [(14), acrolein]
2.5: yeast gene YHR139C | yeast gene YKL196C | yeast gene YLR250W | yeast gene YOR265W
0.4: yeast gene YNL007C
0.8: yeast gene YER130C | yeast gene YHR004C | yeast gene YKL008C | yeast gene YKL039W | yeast gene YKL165C | yeast gene YLR120C | yeast gene YMR275C | yeast gene YNL006W | yeast gene YOR124C | yeast gene YOR288C | yeast gene YPL089C | yeast gene YPL154C
1.4: yeast gene YBL005W-A | yeast gene YBR290W | yeast gene YDL137W | yeast gene YDR104C | yeast gene YDR168W | yeast gene YDR315C | yeast gene YDR378C | yeast gene YGR239C | yeast gene YIL076W | yeast gene YKL013C | yeast gene YKR098C | yeast gene YOL109W | yeast gene YOR362C
1.3: yeast gene YBR170C | yeast gene YBR177C | yeast gene YER021W | yeast gene YJL053W | yeast gene YKL041W | yeast gene YLR093C | yeast gene YLR251W | yeast gene YNR010W | yeast gene YOL164W | yeast gene YPL109C
1.7: yeast gene YCL020W | yeast gene YCR071C | yeast gene YDR304C | yeast gene YIL010W
0.3: yeast gene YIL123W
1.0: yeast gene YAR009C | yeast gene YAR010C | yeast gene YBR010W | yeast gene YCR062W | yeast gene YCR069W | yeast gene YDR084C | yeast gene YDR125C | yeast gene YDR427W | yeast gene YFR014C | yeast gene YGL150C | yeast gene YGL229C | yeast gene YGR036C | yeast gene YGR120C | yeast gene YGR213C | yeast gene YHR161C | yeast gene YHR171W | yeast gene YIL142W | yeast gene YKL139W | yeast gene YLR266C | yeast gene YMR314W | yeast gene YOR117W | yeast gene YOR229W | yeast gene YPL149W | yeast gene YPR108W | yeast gene YPR185W
0.6: yeast gene YDR388W | yeast gene YEL042W | yeast gene YOR355W | yeast gene YOR383C
1.1: yeast gene YAR062W | yeast gene YBL102W | yeast gene YBR139W | yeast gene YBR239C | yeast gene YDR403W | yeast gene YER107C | yeast gene YGR136W | yeast gene YHR169W | yeast gene YIL034C | yeast gene YJL073W | yeast gene YMR104C | yeast gene YNL093W | yeast gene YOR198C
1.6: yeast gene YAL055W | yeast gene YDR085C | yeast gene YER009W | yeast gene YFL028C | yeast gene YFR050C | yeast gene YHR071W | yeast gene YJL035C | yeast gene YKL117W | yeast gene YLR107W | yeast gene YML092C | yeast gene YMR226C
3.7: yeast gene YCR004C
2.6: yeast gene YIR024C | yeast gene YJL116C
0.9: yeast gene YBR214W | yeast gene YCR088W | yeast gene YDR055W | yeast gene YDR481C | yeast gene YER177W | yeast gene YGL094C | yeast gene YGR189C | yeast gene YGR257C | yeast gene YIL140W | yeast gene YJL164C | yeast gene YJL210W | yeast gene YMR027W | yeast gene YMR262W | yeast gene YOL013C | yeast gene YOR181W
2.8: yeast gene YLR178C | yeast gene YMR094W
1.8: yeast gene YJL089W | yeast gene YKR014C | yeast gene YOR261C | yeast gene YPR103W
2.2: yeast gene YDL008W | yeast gene YJR086W | yeast gene YKL070W | yeast gene YLR356W | yeast gene YMR004W | yeast gene YOR157C
1.5: yeast gene YBL101W-A | yeast gene YBR026C | yeast gene YBR286W | yeast gene YDL018C | yeast gene YDR115W | yeast gene YDR259C | yeast gene YER072W | yeast gene YFL043C | yeast gene YGL185C | yeast gene YHR109W | yeast gene YHR163W | yeast gene YJL146W | yeast gene YLR118C | yeast gene YLR327C | yeast gene YMR091C | yeast gene YNR007C | yeast gene YOR257W | yeast gene YOR327C | yeast gene YOR367W | yeast gene YPL218W | yeast gene YPR015C | yeast gene YPR073C
1.2: yeast gene YCL027W | yeast gene YDL238C | yeast gene YDR358W | yeast gene YER039C | yeast gene YHR142W | yeast gene YKL193C | yeast gene YLR362W | yeast gene YMR276W | yeast gene YOR036W | yeast gene YOR259C
3.0: yeast gene YBR173C
3.6: yeast gene YBL078C
0.7: yeast gene YJR004C | yeast gene YLR136C | yeast gene YLR429W | yeast gene YOR132W
3.1: yeast gene YFL022C
2.1: yeast gene YDR373W | yeast gene YER025W | yeast gene YGR232W | yeast gene YJL030W | yeast gene YJR099W | yeast gene YNR069C | yeast gene YOL038W | yeast gene YOR185C | yeast gene YOR298W
1.9: yeast gene YBL043W | yeast gene YDR510W | yeast gene YEL066W | yeast gene YIR039C | yeast gene YNL333W
0.5: yeast gene YDR432W | yeast gene YKL096W | yeast gene YLR391W | yeast gene YMR219W
2.0: yeast gene YBL041W | yeast gene YGR131W | yeast gene YKL103C
2.3: yeast gene YGL158W
